Experimental data taken from patent US9023789B2, “Amylin analogs and pharmaceutical compositions thereof” (Novo Nordisk A/S, priority 2012, dated 2015).
Values after ≈ are worked out from the molar mass of the structure shown. Where two headings read alike, the source gives them in different places. Numbered stars: 1 amine (or outer) side, 2 acyl side, 3 side chain; on linkers, the order of the positions; unused ones are H or OH. Bridge positions count the residues as written; N and C are the ends. Side chains are listed from the residue outwards. Peptide text beside a SMILES is read from it. * marks the point of attachment. C20 diacid = O=C(O)CCCCCCCCCCCCCCCCCCC(=O)*; γGlu = O=C(O)[C@H](CCC(=O)[*:2])N[*:1]; AEEA = NCCOCCOCC(=O)O

What was measured:
[1] = ASSAY (III) ThT fibrillation assay for physical stability; type: physicochemical
Procedure, shortened: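 Formulations with 1 μM ThT, pH adjusted as required, incubated at 37 °C with 960 rpm orbital shaking; fluorescence (ex 444/em 485 nm) read every 20 min. Fibrillation reported as mean ThT fluorescence ± SD of 4–8 replicates at time points; polypeptide concentration measured by reverse-phase HPLC before and after, post-centrifugation.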

[2] = molecular target: T1, rat calcitonin receptor (Rattus norvegicus, UniProt P32214); test: ASSAY (VIII) binding to the rat calcitonin receptor; details: Table 7, read-out: rCTR bind IC50
T1 construct: expressed in transfected cells; host or cells: BHK tk'ts 13 (transient, FuGENE 6), membranes
T1 sequence (P32214 25-479 isoform P32214-2 limits assumed): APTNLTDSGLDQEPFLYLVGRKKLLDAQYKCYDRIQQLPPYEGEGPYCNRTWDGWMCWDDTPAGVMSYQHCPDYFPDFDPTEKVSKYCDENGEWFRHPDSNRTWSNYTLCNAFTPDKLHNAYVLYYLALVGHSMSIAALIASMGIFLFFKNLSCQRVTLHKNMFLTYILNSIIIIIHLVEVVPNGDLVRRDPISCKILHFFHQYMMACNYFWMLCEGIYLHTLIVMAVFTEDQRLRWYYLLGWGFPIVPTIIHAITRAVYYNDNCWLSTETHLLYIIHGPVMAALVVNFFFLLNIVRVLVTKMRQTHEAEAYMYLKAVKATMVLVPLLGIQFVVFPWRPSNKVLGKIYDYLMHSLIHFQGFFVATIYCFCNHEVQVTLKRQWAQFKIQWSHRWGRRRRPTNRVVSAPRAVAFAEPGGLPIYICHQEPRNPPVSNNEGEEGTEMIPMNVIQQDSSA
Procedure, shortened: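 Transfect BHK tk′ts 13 cells transiently with rat calcitonin receptor, culture in DMEM containing 10% FBS, collect cells about 48 hours later, then prepare membranes.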

[3] = ASSAY (IV) determination of solubility; type: physicochemical
Procedure, shortened: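 Polypeptide stock in water ([…]) was mixed 1:1 with 100 mM buffers: glycylglycine at pH 3.0, 4.0, 5.0 and bistrispropane at pH 6.0, 6.5, 7.0, 7.5, 8.0. After 18 hours at room temperature, samples were centrifuged and polypeptide concentration measured by UPLC.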

[4] = bistrispropane buffer, pH 6.5, read-out: Solubility pH 6.5 Concentration
[5] = bistrispropane buffer, pH 7.5, read-out: Solubility pH 7.5 Concentration
[6] = bistrispropane buffer, pH 6.0, read-out: Solubility pH 6.0 Concentration
[7] = bistrispropane buffer, pH 7.0, read-out: Solubility pH 7.0 Concentration
[8] = bistrispropane buffer, pH 8.0, read-out: Solubility pH 8.0 Concentration
[9] = glycylglycine buffer, pH 3.0, read-out: Solubility pH 3.0 Concentration
[10] = glycylglycine buffer, pH 4.0, read-out: Solubility pH 4.0 Concentration
[11] = glycylglycine buffer, pH 5.0, read-out: Solubility pH 5.0 Concentration

SMILES	ThT pH 4.0 lag time (h) [1] [h]	IC50 [2] [nM]	solubility at 18 h [3, 4] [µM]	solubility at 18 h [3, 5] [µM]	solubility at 18 h [3, 6] [µM]	solubility at 18 h [3, 7] [µM]	solubility at 18 h [3, 8] [µM]	solubility at 18 h [3, 9] [µM]	solubility at 18 h [3, 10] [µM]	solubility at 18 h [3, 11] [µM]	Solubility pH 6.5 Concentration ([3]; pH 6.5 (Table 9a))	Solubility pH 7.0 Concentration ([3]; pH 7.0 (Table 9a))
CC[C@H](C)[C@H](NC(=O)[C@H](C)NC(=O)CNC(=O)[C@H](Cc1ccccc1)NC(=O)[C@H](CC(N)=O)NC(=O)[C@@H]1CCCN1C(=O)[C@H](CO)NC(=O)[C@H](CO)NC(=O)[C@H](Cc1c[nH]cn1)NC(=O)[C@H](CCCNC(=N)N)NC(=O)[C@H](CC(C)C)NC(=O)[C@H](Cc1ccccc1)NC(=O)[C@H](CC(N)=O)NC(=O)[C@H](C)NC(=O)[C@H](CC(C)C)NC(=O)[C@H](CCCNC(=N)N)NC(=O)[C@H](CCC(N)=O)NC(=O)[C@@H](NC(=O)[C@H](C)NC(=O)[C@@H]1CSSC[C@H](NC(=O)[C@H](CCCNC(=N)N)NC(=O)CNC(=O)CC[C@H](NC(=O)CCCCCCCCCCCCCCCCCCC(=O)O)C(=O)O)C(=O)N[C@@H](CC(N)=O)C(=O)N[C@@H]([C@@H](C)O)C(=O)N[C@@H](C)C(=O)N[C@@H]([C@@H](C)O)C(=O)N1)[C@@H](C)O)C(=O)N1CCC[C@H]1C(=O)N[C@@H](CO)C(=O)N[C@@H](CO)C(=O)N[C@H](C(=O)N[C@@H](CC(N)=O)C(=O)N[C@H](C(=O)NCC(=O)N[C@@H](CO)C(=O)N[C@@H](CC(N)=O)C(=O)N[C@H](C(=O)N[C@@H](Cc1ccc(O)cc1)C(N)=O)[C@@H](C)O)C(C)C)[C@@H](C)O [Example 46] ({C20 diacid-γGlu}-GRCNTATCATQRLANFLRHSSPNFGAIPSSTNVGSNTY-NH2; disulfide 3-8 (inferred))	24	46.8	≥ 200	106 (≈ 473 µg/mL)	≥ 200	186 (≈ 831 µg/mL)	145 (≈ 648 µg/mL)	≥ 200	≥ 200	≥ 200		
CC[C@H](C)[C@H](NC(=O)[C@H](C)NC(=O)CNC(=O)[C@H](Cc1ccccc1)NC(=O)[C@H](CC(N)=O)NC(=O)[C@@H]1CCCN1C(=O)[C@H](CO)NC(=O)[C@H](CO)NC(=O)[C@H](Cc1c[nH]cn1)NC(=O)[C@H](CCCNC(=N)N)NC(=O)[C@H](CC(C)C)NC(=O)[C@H](Cc1ccccc1)NC(=O)[C@H](Cc1c[nH]cn1)NC(=O)[C@H](C)NC(=O)[C@H](CC(C)C)NC(=O)[C@H](CCCNC(=N)N)NC(=O)[C@H](CCC(N)=O)NC(=O)[C@@H](NC(=O)[C@H](C)NC(=O)[C@@H]1CSSC[C@H](NC(=O)[C@@H](N)CCCCNC(=O)CC[C@H](NC(=O)CCCCCCCCCCCCCCCCCCC(=O)O)C(=O)O)C(=O)N[C@@H](CC(N)=O)C(=O)N[C@@H]([C@@H](C)O)C(=O)N[C@@H](C)C(=O)N[C@@H]([C@@H](C)O)C(=O)N1)[C@@H](C)O)C(=O)N1CCC[C@H]1C(=O)N[C@@H](CO)C(=O)N[C@@H](CO)C(=O)N[C@H](C(=O)N[C@@H](CC(N)=O)C(=O)N[C@H](C(=O)NCC(=O)N[C@@H](CO)C(=O)N[C@@H](Cc1c[nH]cn1)C(=O)N[C@H](C(=O)N[C@@H](Cc1ccc(O)cc1)C(N)=O)[C@@H](C)O)C(C)C)[C@@H](C)O [Example 66] (H-K([γGlu-C20 diacid])CNTATCATQRLAHFLRHSSPNFGAIPSSTNVGSHTY-NH2; disulfide 2-7; N-terminus assumed)	45	20.8	≥ 200	131 (≈ 580 µg/mL)	≥ 200	≥ 200	52 (≈ 230 µg/mL)	≥ 200	≥ 200	≥ 200	≧200 μM	≧200 μM
CC[C@H](C)[C@H](NC(=O)[C@H](C)NC(=O)CNC(=O)[C@H](Cc1ccccc1)NC(=O)[C@H](CC(N)=O)NC(=O)[C@@H]1CCCN1C(=O)[C@H](CO)NC(=O)[C@H](CO)NC(=O)[C@H](Cc1c[nH]cn1)NC(=O)[C@H](CCCNC(=N)N)NC(=O)[C@H](CC(C)C)NC(=O)[C@H](Cc1ccccc1)NC(=O)[C@H](CC(N)=O)NC(=O)[C@H](C)NC(=O)[C@H](CC(C)C)NC(=O)[C@H](CCCNC(=N)N)NC(=O)[C@H](CCC(N)=O)NC(=O)[C@@H](NC(=O)[C@H](C)NC(=O)[C@@H]1CSSC[C@H](NC(=O)[C@@H](N)CCCCNC(=O)COCCOCCNC(=O)CC[C@H](NC(=O)CCCCCCCCCCCCCCCCCCC(=O)O)C(=O)O)C(=O)N[C@@H](CC(N)=O)C(=O)N[C@@H]([C@@H](C)O)C(=O)N[C@@H](C)C(=O)N[C@@H]([C@@H](C)O)C(=O)N1)[C@@H](C)O)C(=O)N1CCC[C@H]1C(=O)N[C@@H](CO)C(=O)N[C@@H](CO)C(=O)N[C@H](C(=O)N[C@@H](CC(N)=O)C(=O)N[C@H](C(=O)NCC(=O)N[C@@H](CO)C(=O)N[C@@H](CC(N)=O)C(=O)N[C@H](C(=O)N[C@@H](Cc1ccc(O)cc1)C(N)=O)[C@@H](C)O)C(C)C)[C@@H](C)O [Example 41]	7	74.1										

The remaining compounds from weak to strong by IC50 [2], led by results:

ThT pH 4.0 lag time (h) [1] [h]	IC50 [2] [nM]	solubility at 18 h [3, 4] [µM]	solubility at 18 h [3, 5] [µM]	solubility at 18 h [3, 6] [µM]	solubility at 18 h [3, 7] [µM]	solubility at 18 h [3, 8] [µM]	solubility at 18 h [3, 9] [µM]	solubility at 18 h [3, 10] [µM]	solubility at 18 h [3, 11] [µM]	Solubility pH 6.5 Concentration ([3]; pH 6.5 (Table 9a))	Solubility pH 7.0 Concentration ([3]; pH 7.0 (Table 9a))	SMILES
23	18.8	≥ 200	≥ 200	≥ 200	≥ 200	≥ 200	≥ 200	≥ 200	≥ 200			CC[C@H](C)[C@H](NC(=O)[C@H](C)NC(=O)CNC(=O)[C@H](Cc1ccccc1)NC(=O)[C@H](CC(N)=O)NC(=O)[C@H](CCCCNC(=O)CC[C@H](NC(=O)CC[C@H](NC(=O)CCCCCCCCCCCCCCCCCCC(=O)O)C(=O)O)C(=O)O)NC(=O)[C@H](CO)NC(=O)[C@H](CO)NC(=O)[C@H](Cc1c[nH]cn1)NC(=O)[C@H](CCCNC(=N)N)NC(=O)[C@H](CC(C)C)NC(=O)[C@H](Cc1ccccc1)NC(=O)[C@H](CC(=O)O)NC(=O)[C@H](C)NC(=O)[C@H](CC(C)C)NC(=O)[C@H](CCCNC(=N)N)NC(=O)[C@H](CCC(N)=O)NC(=O)[C@@H](NC(=O)[C@H](C)NC(=O)[C@@H]1CSSC[C@H](NC(=O)[C@@H](N)CCCCN)C(=O)N[C@@H](CC(N)=O)C(=O)N[C@@H]([C@@H](C)O)C(=O)N[C@@H](C)C(=O)N[C@@H]([C@@H](C)O)C(=O)N1)[C@@H](C)O)C(=O)N1CCC[C@H]1C(=O)N[C@@H](CO)C(=O)N[C@@H](CO)C(=O)N[C@H](C(=O)N[C@@H](CC(N)=O)C(=O)N[C@H](C(=O)NCC(=O)N[C@@H](CO)C(=O)N[C@@H](CC(=O)O)C(=O)N[C@H](C(=O)N[C@@H](Cc1ccc(O)cc1)C(N)=O)[C@@H](C)O)C(C)C)[C@@H](C)O [Example 59] (H-KCNTATCATQRLADFLRHSSK([γGlu-γGlu-C20 diacid])NFGAIPSSTNVGSDTY-NH2; disulfide 2-7; N-terminus assumed)
18	10.9	≥ 200	≥ 200	≥ 200	≥ 200	≥ 200	≥ 200	≥ 200	≥ 200			CC[C@H](C)[C@H](NC(=O)[C@H](C)NC(=O)CNC(=O)[C@H](Cc1ccccc1)NC(=O)[C@H](CC(N)=O)NC(=O)[C@@H]1CCCN1C(=O)[C@H](CO)NC(=O)[C@H](CO)NC(=O)[C@H](Cc1c[nH]cn1)NC(=O)[C@H](CCCNC(=N)N)NC(=O)[C@H](CC(C)C)NC(=O)[C@H](Cc1ccccc1)NC(=O)[C@H](CC(N)=O)NC(=O)[C@H](C)NC(=O)[C@H](CC(C)C)NC(=O)[C@H](CCCNC(=N)N)NC(=O)[C@H](CCC(N)=O)NC(=O)[C@@H](NC(=O)[C@H](C)NC(=O)[C@@H]1CSSC[C@H](NC(=O)[C@@H](N)CCCCNC(=O)COCCOCCNC(=O)CC[C@H](NC(=O)CCCCCCCCCCCCCCCCCCC(=O)O)C(=O)O)C(=O)N[C@@H](CC(N)=O)C(=O)N[C@@H]([C@@H](C)O)C(=O)N[C@@H](C)C(=O)N[C@@H]([C@@H](C)O)C(=O)N1)[C@@H](C)O)C(=O)N1CCC[C@H]1C(=O)N1CCC[C@H]1C(=O)N[C@@H](CO)C(=O)N[C@H](C(=O)N1CCC[C@H]1C(=O)N[C@H](C(=O)NCC(=O)N[C@@H](CO)C(=O)N[C@@H](CC(N)=O)C(=O)N[C@H](C(=O)N[C@@H](Cc1ccc(O)cc1)C(N)=O)[C@@H](C)O)C(C)C)[C@@H](C)O [Example 53] (H-K([AEEA-γGlu-C20 diacid])CNTATCATQRLANFLRHSSPNFGAIPPSTPVGSNTY-NH2; disulfide 2-7; N-terminus assumed)
